Reference: US5707984A, “Steroid nitrite/nitrate ester derivatives useful as anti-inflammatory drugs” (G. D. Searle & Co., priority 1995, dated 1998)
Each block holds one compound with its values, some of them ahead of it.

Columns and labels:
[1] = test system: cyclic GMP in human fetal fibroblasts; assay: In vitro stimulation of cGMP production assay, human fetal fibroblasts with isobutylmethylxanthine, radioimmunoassay (NO reporter cell assay); type: cell-based; details: 120 min, isobutylmethylxanthine present; basal 1.8
Procedure: (§1) Selected compounds were tested in three in vitro and two in vivo assays. The in vitro assays consisted of the following: measuring the effect of the compounds to inhibit the increase of prostaglandins following treatment of human fetal fibroblasts cells with interleukin-1 followed by arachidonic acid, measuring the effect of the compounds on cyclic GMP in the human fetal fibroblasts, and measuring the smooth muscle relaxant activity in rat aortic rings. The in vivo assay consists of measuring the antiinflammatory properties of the compounds in the carageenan treated rat air pouch model and the relaxant activity on acetylcholine-induced bronchoconstriction in guinea-pigs.
B. In vitro stimulation of cGMP production assay: Human fetal fibroblasts in the presence of isobutylmethylxanthine, an inhibitor of phosphodiesterase, were treated with compounds for 120 min and the intra-cellular cyclic GMP levels are measured by a radioimmunoassay. The cell line is utilized as a reporter cell assay to monitor the production of NO.

[2] = test system: rat aortic ring smooth muscle; assay: In vitro smooth relaxant activity assay, rat aortic rings precontracted with phenylephrine; type: cell-based; details: for EC50: Rattus norvegicus, in the presence of Cys and L-NAME, precontracted with phenylephrine (0.3 μM), read-out: Relaxation, EC50; for smooth muscle relaxant activity (in words): rat aortic rings, Cys and L-NAME, FIGS. 1 and 2
Procedure: as §1
C. In vitro smooth relaxant activity assay: Selected compounds were examined for the ability to relax smooth muscle. The rat aortic ring assay was utilized as a bioassay to measure the relaxant activity. The rings were precontracted with phenylephrine (0.3 μM) and subsequently compounds were added to the tissue bath in the presence of cysteine (Cys) and N^G -L-nitro-arginine methyl ester (L-NAME): […]

[3] = test system: prostaglandin E2 in pouch fluid (carageenan-induced inflammation); assay: In vivo anti inflammatory assay, rat carageenan air pouch
Procedure: as §1
D. In vivo anti inflammatory assay: EXAMPLE 1 was tested for antiinflammatory activity in vivo in the rat carageenan air pouch assay. Rats are injected subcutaneously with a volume of air over several days to form a pouch. […] The inflammation is measured by assaying the pouch fluid for prostaglandin E2 by ELISA. Examples 1 at 3 mg/kg dose blocked the increase in prostaglandin E2 by 60%.

[4] = test system: prostaglandin E2 (PGE2) synthesis in human fetal fibroblasts cells; assay: In vitro inhibition of prostaglandin E2 (PGE2) synthesis assay, human fetal fibroblasts treated with IL-1 then arachidonic acid, ELISA; type: cell-based; details: IL-1 16 h then arachidonic acid; compound 10 uM added with IL-1; basal 3.5, IL-1, AA alone 40.0
Procedure: as §1
A. In vitro inhibiton of prostaglandin E2 (PGE2) synthesis assay: Human fetal fibroblasts cells were treated with IL-1 for 16 hours and then with 10 mM arachidonic acid (AA). The prostaglandin E2 levels were measured by an ELISA. Compounds were given at the time of addition of IL-1. This assay provides an in vitro assessment of the compound to block the induction of the proinflammatory agent prostaglandin E2 (PGE2): […]

SMILES: CC(=O)OCC(=O)[C@@]1(O)CC[C@H]2[C@@H]3CCC4=CC(=O)C=C[C@]4(C)[C@H]3[C@@H](ON=O)C[C@@]21C [Example 1]
cyclic GMP [1]: 4.8 fm/cell well | EC50 [2]: 20 nM | ability to reduce inflammation in vivo (in words) [3]: possess the ability to reduce inflammation in vivo | blocked the increase in prostaglandin E2 ([3]; 3 mg/kg): 60% | PGE2 [4]: 9.2 ng

SMILES: C[C@]12C=CC(=O)C=C1CC[C@@H]1[C@@H]2[C@@H](ON=O)C[C@@]2(C)[C@H]1CC[C@]2(O)C(=O)CO [Example 2]
EC50 [2]: 30 nM

SMILES: CCC(=O)OCC(=O)[C@@]1(OC(=O)CC)[C@@H](C)C[C@H]2[C@@H]3CCC4=CC(=O)C=C[C@]4(C)[C@@]3(Cl)[C@@H](ON=O)C[C@@]21C [Example 11]
EC50 [2]: 40 nM

SMILES: CCC(=O)OCC(=O)[C@@]1(OC(=O)CC)[C@@H](C)C[C@H]2[C@@H]3CCC4=CC(=O)C=C[C@]4(C)[C@@]3(Cl)[C@@H](O[N+](=O)[O-])C[C@@]21C [beclomethasone dipropionate-11-nitrate ester]
EC50 [2]: 2000 nM

EC50 [2]: > 100000 nM
SMILES: CCC(=O)OCC(=O)[C@@]1(OC(=O)CC)[C@@H](C)C[C@H]2[C@@H]3CCC4=CC(=O)C=C[C@]4(C)[C@@]3(Cl)[C@@H](O)C[C@@]21C [beclomethasone dipropionate]
smooth muscle relaxant activity (in words) [2]: did not show any effect

SMILES: CC(=O)OCC(=O)[C@@]1(O)CC[C@H]2[C@@H]3CCC4=CC(=O)C=C[C@]4(C)[C@H]3[C@@H](O[N+](=O)[O-])C[C@@]21C [prednisolone-11-nitrate ester-21-acetate]
EC50 [2]: 25000 nM

SMILES: C[C@]12C=CC(=O)C=C1CC[C@@H]1[C@@H]2[C@@H](O)C[C@@]2(C)[C@H]1CC[C@]2(O)C(=O)CO [prednisolone]
cyclic GMP [1]: 1.6 fm/cell well | smooth muscle relaxant activity (in words) [2]: did not show any effect | PGE2 [4]: 9.9 ng
